Assay results taken from US11873287B2, “Piperidine-2,6-dione derivatives and ulcerative colitis treating” (TIANJIN HEMAY PHARMACEUTICAL SCI-TECH CO., LTD, priority 2016, dated 2024).

Key:
[1] = system: DSS-Induced inflammatory Bowel Disease Models in Mice; assay: DSS-induced inflammatory bowel disease model in mice (Biological Example 3, 1.0-1.5% DSS); type: in vivo, C57BL/6 mice; settings: 30 mg/Kg i.g. Q.D
Description: (§1) 40 healthy female C57BL/6 mice having weight of 16-19 g were randomly divided into 4 groups in accordance with weight. There were 10 mice in each group (see Table 6 below). The first day of the experiment was recorded as Day 0. The administration regimen and induction regimen were detailed in Table 6. The change in weight of experimental animals was recorded every day. […] Samples of animal colonic tissues were obtained to measure the length. One-way ANOVA analysis of mice weights was performed by SPSS22. Statistical analyses between groups were performed. Mann-Whitney U non-parametric test was performed on the length of colon.
(§2) Calculation Formula of Inhibitory Rate of Colonic Reduction: (Length of Colon in Administration Group−Length of Colon in Model Group)/(Length of Colon in Blank Group−Length of Colon in Model Group)

ICR mice = assay: Acute toxicity experiment of single oral administration in mice; type: in vivo; settings: 1000 mg/Kg single oral dose
Description: The mice were fasted one day before the experiment. On the day of the experiment, 6 mice (ICR mice, body weight of 19-21 g, three females and three males) were selected in each experiment group. First of all, one female and one male were selected to orally give 1000 mg/Kg, and observed for 5-10 minutes. If there were no obvious side effects, the remaining 4 animals were orally given the same dose, and observed for 10-15 minutes. If no animal died, the animals were placed in a box to balancedly feed for 7 days. The state was observed and the body weight was recorded daily.
Observation Indexes within 0-15 Minutes After Administration
Activity: restlessness, hyperactivity
Nervous system response: tremor, spasm, convulsion, ataxia, posture abnormality, etc.
Autonomic nerve: exophthalmos, salivation, tears, urination (hematuria), diarrhea, piloerection, breathing, etc.
Observation Indexes Over 7 Days
State of Animal: lethargy, hyperactivity, excitement, hair loss, diarrhea, abnormal behavior, death, etc.

[2] = system: DSS-Induced inflammatory Bowel Disease Models in Mice; assay: DSS-induced inflammatory bowel disease model in mice (Biological Example 5, 1.3% DSS); type: in vivo, C57BL/6 mice; settings: 30 mg/Kg i.g. Q.D, 1.3% DSS days 0-5; for inhibition in vivo at 30 mg/kg: Mus musculus, po, read-out: Inhibitory Rate of Colonic Reduction
Description: as §1
The experimental method used in the present biological example is identical to those in Biological Example 3.
One-way ANOVA analysis of mice body weights and colonic weights per length was performed by SPSS22. Statistical analyses between groups were performed.
as §2

[3] = DSS 1.0% days 0-4, 1.5% days 5-9

| Structure (SMILES) | Daily Body Weight of Tested Female Mice (Mean ± SD) (ICR mice; Day 1) [g] | Daily Body Weight of Tested Male Mice (Mean ± SD) (ICR mice; Day 1) [g] | Daily Body Weight of Tested Female Mice (Mean ± SD) (ICR mice; Day 2) [g] | Daily Body Weight of Tested Male Mice (Mean ± SD) (ICR mice; Day 2) [g] | Daily Body Weight of Tested Female Mice (Mean ± SD) (ICR mice; Day 3) [g] | Daily Body Weight of Tested Male Mice (Mean ± SD) (ICR mice; Day 3) [g] | Daily Body Weight of Tested Female Mice (Mean ± SD) (ICR mice; Day 4) [g] | Daily Body Weight of Tested Male Mice (Mean ± SD) (ICR mice; Day 4) [g] | Daily Body Weight of Tested Female Mice (Mean ± SD) (ICR mice; Day 5) [g] | Daily Body Weight of Tested Male Mice (Mean ± SD) (ICR mice; Day 5) [g] | Daily Body Weight of Tested Female Mice (Mean ± SD) (ICR mice; Day 6) [g] | Daily Body Weight of Tested Male Mice (Mean ± SD) (ICR mice; Day 6) [g] | Daily Body Weight of Tested Female Mice (Mean ± SD) (ICR mice; Day 7) [g] | Daily Body Weight of Tested Male Mice (Mean ± SD) (ICR mice; Day 7) [g] | Length (cm, Mean ± SD) of colon [2] [cm] | inhibition in vivo at 30 mg/kg [2] [%] | Summary of toxic response of tested animals in 7 Days (ICR mice; Female) | Summary of toxic response of tested animals in 7 Days (ICR mice; Male) | also measured |
| --- | --- | --- | --- | --- | --- | --- | --- | --- | --- | --- | --- | --- | --- | --- | --- | --- | --- | --- | --- |
| COCCN1C(=O)CCC(N2C(=O)c3cccc(F)c3C2=O)C1=O (stereo not drawn) [Example 4, 4-fluoro-2-(1-(2-methoxyethyl)-2,6-dioxopiperidin-3-yl)isoindolin-1,3-dione] | 18.4 ± 0.4 | 17.6 ± 0.2 | 21.8 ± 0.5 | 22.2 ± 0.3 | 23.2 ± 0.6 | 23.6 ± 0.6 | 23.5 ± 1.2 | 24.7 ± 0.6 | 24.7 ± 0.9 | 26.7 ± 0.4 | 24.2 ± 1.2 | 27.6 ± 0.8 | 24.0 ± 0.8 | 28.2 ± 0.1 | – | – | – | – | body weights compared with model control group [1]: higher than that of the model control group; Average Length of Colon (Mean ± SD) [1, 3]: 6.3 ± 0.3 cm; Inhibitory Rate of Colonic Reduction [1, 3]: 54.5%; Body Weights of Experimental Mice (Mean ± SD) ([1]; Day 0): 17.4 ± 1.3 g; Body Weights of Experimental Mice (Mean ± SD) ([1]; Day 1): 17.6 ± 1.1 g; Body Weights of Experimental Mice (Mean ± SD) ([1]; Day 2): 18.0 ± 0.9 g; Body Weights of Experimental Mice (Mean ± SD) ([1]; Day 3): 17.8 ± 1.0 g; Body Weights of Experimental Mice (Mean ± SD) ([1]; Day 4): 17.9 ± 0.9 g; Body Weights of Experimental Mice (Mean ± SD) ([1]; Day 5): 18.1 ± 1.1 g; Body Weights of Experimental Mice (Mean ± SD) ([1]; Day 6): 17.7 ± 0.9 g; Body Weights of Experimental Mice (Mean ± SD) ([1]; Day 7): 18.1 ± 0.9 g; Body Weights of Experimental Mice (Mean ± SD) ([1]; Day 8): 17.8 ± 0.8 g; Body Weights of Experimental Mice (Mean ± SD) ([1]; Day 9): 17.6 ± 0.8 g; Body Weights of Experimental Mice (Mean ± SD) ([1]; Day 10): 17.0 ± 0.7 g; Body Weights of Experimental Mice (Mean ± SD) ([1]; Day 11): 16.7 ± 0.7 g; Body Weights of Experimental Mice (Mean ± SD) ([1]; Day 12): 17.0 ± 0.9 g |
| C[S+]([O-])CCN1C(=O)CCC(N2C(=O)c3cccc(N)c3C2=O)C1=O (stereo not drawn) [Example 12, 4-amino-2-(1-(2-methylsulfinylethyl)-2,6-dioxopiperidin-3-yl)isoindolin-1,3-dione] | 18.7 ± 0.7 | 18.5 ± 0.2 | 21.8 ± 0.6 | 24.3 ± 0.6 | 22.6 ± 0.1 | 24.9 ± 0.1 | 22.6 ± 0.0 | 24.9 ± 0.1 | 23.7 ± 0.6 | 26.1 ± 0.7 | 25.3 ± 1.0 | 27.8 ± 0.7 | 25.7 ± 1.6 | 28.5 ± 0.7 | 7.0 ± 0.5 | 109 | Abnormality was not observed in 7 days of the test | Abnormality was not observed in 7 days of the test | – |
| CS(=O)(=O)CCN1C(=O)CCC(N2C(=O)c3cccc(N)c3C2=O)C1=O (stereo not drawn) [Example 13, 4-amino-2-(1-(2-methylsulfonylethyl)-2,6-dioxopiperidin-3-yl)isoindolin-1,3-dione] | 18.8 ± 1.1 | 19.6 ± 0.7 | 21.3 ± 0.3 | 23.1 ± 0.6 | 21.8 ± 0.4 | 24.4 ± 0.9 | 21.8 ± 0.4 | 24.4 ± 0.9 | 23.0 ± 0.5 | 26.5 ± 0.5 | 23.2 ± 0.9 | 28.3 ± 1.3 | 23.6 ± 0.9 | 28.4 ± 0.8 | 6.9 ± 0.4 | 100 | Abnormality was not observed in 7 days of the test | Abnormality was not observed in 7 days of the test | – |
| COCCN1C(=O)CCC(C)(N2C(=O)c3cccc(N)c3C2=O)C1=O (stereo not drawn) [Example 15, 4-amino-2-(1-(2-methoxyethyl)-3-methyl-2,6-dioxopiperidin-3-yl)isoindolin-1,3-dione] | – | – | – | – | – | – | – | – | – | – | – | – | – | – | 6.6 ± 0.4 | 72.7 | – | – | – |
| COCCCN1C(=O)CCC(N2C(=O)c3cccc(F)c3C2=O)C1=O (stereo not drawn) [Example 17, 4-fluoro-2-(1-(3-methoxypropyl)-2,6-dioxopiperidin-3-yl)isoindolin-1,3-dione] | 18.6 ± 1.0 | 19.0 ± 0.7 | 21.9 ± 0.4 | 24.0 ± 0.7 | 22.7 ± 0.4 | 24.6 ± 0.8 | 22.7 ± 0.4 | 24.6 ± 0.8 | 23.0 ± 0.4 | 26.1 ± 0.7 | 23.1 ± 1.0 | 28.1 ± 0.6 | 22.7 ± 1.2 | 29.3 ± 1.0 | 7.0 ± 0.4 | 109 | Motor dysfunction in one animal was observed 10 minutes after | Motor dysfunction in two animals was observed 30 minutes after | – |
| CCOCCN1C(=O)CCC(N2C(=O)c3cccc(F)c3C2=O)C1=O (stereo not drawn) [Example 20, 4-fluoro-2-(1-(2-ethoxyethyl)-2,6-dioxopiperidin-3-yl)isoindolin-1,3-dione] | 18.7 ± 0.4 | 18.8 ± 1.0 | 21.6 ± 1.0 | 24.0 ± 1.1 | 22.1 ± 1.0 | 25.3 ± 1.2 | 22.1 ± 1.0 | 25.3 ± 1.2 | 23.0 ± 1.4 | 26.7 ± 1.2 | 23.3 ± 0.2 | 29.0 ± 1.1 | 23.7 ± 0.8 | 29.3 ± 0.7 | 6.9 ± 0.6 | 100 | Decrease of activity was observed in two animals in 10 minutes | Decrease of activity was observed in one animal 11 minutes after | – |
| COCCN1C(=O)CCC(N2C(=O)c3ccc(F)cc3C2=O)C1=O (stereo not drawn) [Example 21, 5-fluoro-2-(1-(2-methoxyethyl)-2,6-dioxopiperidin-3-yl)-isoindolin-1,3-dione] | – | – | – | – | – | – | – | – | – | – | – | – | – | – | 6.9 ± 0.4 | 100 | – | – | – |
| COCCN1C(=O)CCC(N2C(=O)c3ccc(OC)c(N)c3C2=O)C1=O (stereo not drawn) [Example 25, 4-amino-5-methoxy-2-(1-(2-methoxyethyl)-2,6-dioxopiperidin-3-yl)-isoindolin-1,3-dione] | – | – | – | – | – | – | – | – | – | – | – | – | – | – | 6.7 ± 0.5 | 81.8 | – | – | – |
